Measured values from patent US5583115A, “Dialkyltiacumicin compounds” (Abbott Laboratories, priority 1995, dated 1996).
Converted amounts (≈) assume the structure as drawn.

Assays:
[1] = system: Clostridium difficile; test: In vivo hamster model of pseudomembranous Clostridium difficile induced colitis; settings: for % Weight change, Day 22 / % Mortality: days 8-14; for % Mortality: expiring by day 20
Description: (Suppression of normal gastrointestinal bacteria by the ciprofloxacin permitted the drug-resistant C. difficile to predominate.) Five additional hamsters were segregated as a noninfected control group.
The infected animals were divided into three groups comprising (a) 10 untreated animals; (b) 15 vancomycin-treated animals (5 each at 20, 10 and 1 mg/kg/day orally on days 8-14); and (c) 10 animals treated with the compound of Example 2 (5 each at 10 and 1 mg/kg/day on days 8-14). The subject animals were monitored for (a) body weight (infected hamsters lose significant body mass), and (b) mortality (percent expiring by day 20).

[2] = system: Micrococcus luteus; test: MIC agar dilution, aerobic and facultative bacteria
[3] = system: anaerobic pathogens, in particular Clostridium species; test: In vitro activity against anaerobic pathogens, Wilkins-Chalgren agar; format: cell-based; settings: MIC, Table 2
Text: It has now been established that novel antimicrobial agents may be obtained by chemical modification of tiacumicins, which are antibiotics isolated from the fermentation broth and mycelium of Dactylosporangium aurantiacum subsp. hamdenensis subsp. nov. Tiacumicin antibiotics are described in U.S. Pat. No. 4,918,174 (issued Apr. 17, 1990 and incorporated herein by reference), and comprise the compounds tiacumicin A, tiacumicin B, tiacumicin C, tiacumicin D, tiacumicin E and tiacumicin F. The compounds of the present invention, which are derivatives of the above tiacumicins, are found to have in vitro activity against a variety of bacterial pathogens and in particular against Clostridium when evaluated in an assay utilizing Wilkins-Chalgren agar in anaerobic conditions. It is therefore expected that these compounds will be useful in the treatment of bacterial infections in mammals, and in particular in the treatment of certain instances of colitis.

[4] = system: Klebsiella pneumoniae; test: MIC agar dilution, aerobic and facultative bacteria; settings: Culture # 2518
[5] = system: B. loescheii; test: MIC agar dilution, anaerobic bacteria; format: cell-based; settings: Culture # 1767
[6] = system: P. anaerobius; test: MIC agar dilution, anaerobic bacteria; format: cell-based; settings: Culture # 1780
[7] = system: P. magnus; test: MIC agar dilution, anaerobic bacteria; format: cell-based; settings: Culture # 1778
[8] = system: Fusobacterium nucleatum; test: MIC agar dilution, anaerobic bacteria; format: cell-based; settings: Culture # 2478
[9] = system: Streptococcus bovis; test: MIC agar dilution, aerobic and facultative bacteria; settings: Culture # 1699
[10] = system: P. cepacia; test: as above; settings: Culture # 1684
[11] = system: B. thetaiotaomicron; test: MIC agar dilution, anaerobic bacteria; format: cell-based
[12] = system: B. bivius; test: MIC agar dilution, anaerobic bacteria; format: cell-based; settings: Culture # 2483
[13] = system: B. disiens; test: MIC agar dilution, anaerobic bacteria; format: cell-based; settings: Culture # 1763
[14] = system: Fusobacterium species; test: MIC agar dilution, anaerobic bacteria; format: cell-based; settings: Culture # 1770
[15] = system: C. difficile; test: MIC agar dilution, anaerobic bacteria; format: cell-based
[16] = system: P. species; test: MIC agar dilution, anaerobic bacteria; format: cell-based; settings: Culture # 1776
[17] = system: Candida albicans; test: MIC agar dilution, aerobic and facultative bacteria; settings: Culture # 3622
[18] = system: Clostridium perfringens; test: microbe, parasite or virus in culture; format: cell-based
[19] = system: Pseudomonas aeruginosa; test: MIC agar dilution, aerobic and facultative bacteria
[20] = system: Nocardia asteroides; test: as above; settings: Culture # 5173
[21] = system: Staphylococcus aureus; test: as above
[22] = system: Enterobacter aerogenes; test: as above; settings: Culture # 1677
[23] = system: C. ramosum; test: MIC agar dilution, anaerobic bacteria; format: cell-based; settings: Culture # 2482
[24] = system: Peptostreptococcus asaccharolyticus; test: MIC agar dilution, anaerobic bacteria; format: cell-based; settings: Culture # 1777
[25] = system: Providencia stuartii; test: MIC agar dilution, aerobic and facultative bacteria; settings: Culture # 1831
[26] = system: Streptococcus agalactiae; test: as above; settings: Culture # 1670
[27] = system: B. vulgatus; test: MIC agar dilution, anaerobic bacteria; format: cell-based
[28] = system: S. epidermidis; test: MIC agar dilution, aerobic and facultative bacteria; settings: Culture # 1666
[29] = system: Enterococcus faecium; test: as above; settings: Culture # 1668
[30] = system: Propionibacterium acnes; test: MIC agar dilution, anaerobic bacteria; format: cell-based; settings: Culture # 1775

Q: Which “body mass” value ([1]; 1 mg/kg) does the source give for `CCc1c(Cl)c(OC)c(Cl)c(OC)c1C(=O)OC1C(C)OC(OCC2=CC=CCC(O)C(C)=CC(CC)C(OC3OC(C)(C)C(OC(=O)C(C)C)C(O)C3O)C(C)=CC(C)=CCC(C(C)O)OC2=O)C(OC)C1O` (centres unmarked) [Example 2, 3"', 5"'-Di-O-methyltiacumicin B] here?
A: The value was “maintained body mass closest to that of non-infected controls”.

Q: And the “% Weight change, Day 22” value ([1]; 1 mg/kg/day)?
A: Its value is 154%.

Q: And the “% Mortality” value ([1]; 1 mg/kg/day)?
A: The value was 20%.

Q: And the “% Weight change, Day 22” value ([1]; 10 mg/kg/day)?
A: The value was 140%.

Q: And the “% Mortality” value ([1]; 10 mg/kg/day)?
A: The value was 60%.

Q: And the “treatment of antibiotic-associated colitis” value ([1]; Table 3)?
A: Its value is “effectively treat an antibiotic-associated colitis”.

Q: What about the “survival rate” value ([1]; versus untreated infected controls or vancomycin) of the same compound?
A: Its value is “higher survival rate than either untreated infected controls or in hamsters treated with vancomycin”.

Q: What about the MIC ([2]; Culture # 2493) of the same compound?
A: The MIC was 0.1 µg/mL (≈ 0.0921 µM).

Q: What about the MIC ([2]; Culture # 2517) of the same compound?
A: Its MIC is 0.1 µg/mL (≈ 0.0921 µM).

Q: What about the “activity against anaerobic pathogens” value [3] of the same compound?
A: Its value is “substantial activity against anaerobic pathogens and in particular against Clostridium species”.

Q: What about the MIC [4] of the same compound?
A: The MIC was over 100 µg/mL.

Q: What about the MIC [5] of the same compound?
A: Its MIC is over 2 µg/mL.

Q: And the MIC [6]?
A: Its MIC is over 2 µg/mL.

Q: What about the MIC [7] of the same compound?
A: The MIC was over 2 µg/mL.

Q: What about the MIC [8] of the same compound?
A: Its MIC is over 2 µg/mL.

Q: What about the MIC [9] of the same compound?
A: Its MIC is over 100 µg/mL.

Q: And the MIC [10]?
A: The MIC was over 100 µg/mL.

Q: And the MIC ([11]; Culture # 1764)?
A: Its MIC is over 2 µg/mL.

Q: And the MIC ([11]; Culture # 1765)?
A: The MIC was over 2 µg/mL.

Q: What about the MIC ([11]; Culture # 1766) of the same compound?
A: Its MIC is over 2 µg/mL.

Q: What about the MIC [12] of the same compound?
A: Its MIC is over 2 µg/mL.

Q: And the MIC [13]?
A: The MIC was over 2 µg/mL.

Q: What about the MIC [14] of the same compound?
A: Its MIC is over 2 µg/mL.

Q: What about the MIC ([15]; Culture # 1496) of the same compound?
A: The MIC was 0.25 µg/mL (≈ 0.23 µM).

Q: What about the MIC ([15]; Culture # 1497) of the same compound?
A: Its MIC is 0.5 µg/mL (≈ 0.46 µM).

Q: And the MIC ([15]; Culture # 1774)?
A: Its MIC is 0.25 µg/mL (≈ 0.23 µM).

Q: And the MIC ([15]; Culture # 2025)?
A: Its MIC is 0.5 µg/mL (≈ 0.46 µM).

Q: And the MIC ([15]; Culture # 2480)?
A: Its MIC is 0.25 µg/mL (≈ 0.23 µM).

Q: And the MIC ([15]; Culture # 2528)?
A: Its MIC is 0.5 µg/mL (≈ 0.46 µM).

Q: What about the MIC ([15]; Culture # 2529) of the same compound?
A: Its MIC is 0.5 µg/mL (≈ 0.46 µM).

Q: And the MIC [16]?
A: The MIC was over 2 µg/mL.

Q: What about the MIC [17] of the same compound?
A: The MIC was over 100 µg/mL.

Q: And the MIC ([18]; Culture # 1771)?
A: The MIC was 0.06 µg/mL (≈ 0.0552 µM).

Q: What about the MIC ([18]; Culture # 1772) of the same compound?
A: Its MIC is 0.06 µg/mL (≈ 0.0552 µM).

Q: What about the MIC ([18]; Culture # 1773) of the same compound?
A: Its MIC is 0.06 µg/mL (≈ 0.0552 µM).

Q: What about the MIC ([19]; Culture # 1679) of the same compound?
A: The MIC was over 100 µg/mL.

Q: And the MIC ([19]; Culture # 1680)?
A: Its MIC is over 100 µg/mL.

Q: What about the MIC ([19]; Culture # 1681) of the same compound?
A: Its MIC is over 100 µg/mL.

Q: And the MIC ([19]; Culture # 1682)?
A: Its MIC is 100 µg/mL (≈ 92.1 µM).

Q: What about the MIC ([19]; cipro R, Culture # 1919) of the same compound?
A: Its MIC is over 100 µg/mL.

Q: And the MIC ([19]; cipro R, Culture # 1920)?
A: Its MIC is over 100 µg/mL.

Q: And the MIC [20]?
A: The MIC was 0.39 µg/mL (≈ 0.359 µM).

Q: What about the MIC ([21]; Culture # 1662, brain heart infusion agar, 37° C., 20 hours) of the same compound?
A: The MIC was 100 µg/mL (≈ 92.1 µM).

Q: And the MIC ([21]; Culture # 1664)?
A: Its MIC is 50 µg/mL (≈ 46 µM).

Q: And the MIC ([21]; Culture # 1690)?
A: The MIC was 100 µg/mL (≈ 92.1 µM).

Q: What about the MIC ([21]; Culture # 2124) of the same compound?
A: The MIC was over 100 µg/mL.

Q: And the MIC ([21]; Culture # 2130)?
A: Its MIC is over 100 µg/mL.

Q: What about the MIC ([21]; Culture # 2498) of the same compound?
A: The MIC was over 100 µg/mL.

Q: And the MIC ([21]; cipro res., Culture # 3384)?
A: The MIC was 100 µg/mL (≈ 92.1 µM).

Q: What about the MIC [22] of the same compound?
A: Its MIC is over 100 µg/mL.

Q: What about the MIC [23] of the same compound?
A: Its MIC is over 2 µg/mL.

Q: What about the MIC [24] of the same compound?
A: Its MIC is over 2 µg/mL.

Q: What about the MIC [25] of the same compound?
A: The MIC was over 100 µg/mL.

Q: And the MIC [26]?
A: The MIC was over 100 µg/mL.

Q: What about the MIC ([27]; Culture # 1762) of the same compound?
A: The MIC was over 2 µg/mL.

Q: What about the MIC ([27]; Culture # 2481) of the same compound?
A: Its MIC is over 2 µg/mL.

Q: And the MIC [28]?
A: Its MIC is 50 µg/mL (≈ 46 µM).

Q: And the MIC [29]?
A: The MIC was over 100 µg/mL.

Q: What about the MIC [30] of the same compound?
A: The MIC was over 2 µg/mL.
